Consider 33 compounds from ChEMBL document CHEMBL3612067, “Synthesis of a series of unsaturated ketone derivatives as selective and reversible monoamine oxidase inhibitors” (Bioorg Med Chem, 2015).

SMILES strings stand for the structures. Some results are limits rather than exact numbers.

The target of the first data set is T1, Amine oxidase [flavin-containing] B (Homo sapiens, UniProt P27338).
T1 sequence (P27338 whole entry): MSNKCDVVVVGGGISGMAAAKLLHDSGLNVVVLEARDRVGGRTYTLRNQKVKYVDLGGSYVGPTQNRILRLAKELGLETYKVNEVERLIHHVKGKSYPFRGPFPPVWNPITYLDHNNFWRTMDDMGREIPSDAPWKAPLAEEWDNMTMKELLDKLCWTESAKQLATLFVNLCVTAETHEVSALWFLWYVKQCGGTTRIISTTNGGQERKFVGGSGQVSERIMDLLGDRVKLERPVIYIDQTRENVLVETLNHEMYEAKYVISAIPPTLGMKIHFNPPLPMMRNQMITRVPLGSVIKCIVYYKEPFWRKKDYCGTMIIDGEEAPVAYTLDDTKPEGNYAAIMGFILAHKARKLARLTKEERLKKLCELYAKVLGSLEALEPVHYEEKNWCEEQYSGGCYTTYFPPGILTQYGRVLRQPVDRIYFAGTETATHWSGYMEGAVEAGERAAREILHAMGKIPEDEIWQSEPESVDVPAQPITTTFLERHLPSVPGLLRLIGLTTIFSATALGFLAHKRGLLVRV
Conditions: not given; call rule not given here
Take `COc1ccccc1C(=O)/C=C/c1ccccc1C(F)(F)F`: the IC50 – broadly, the concentration that inhibits the measured activity by half – came to 0.253 µM.

The compound `COc1ccc(NC(=O)/C=C/c2ccccc2C(F)(F)F)cc1` yielded an IC50 greater than 10 µM.

In the case of `COc1ccc(NC(=O)/C=C/c2ccccc2Cl)cc1`, the IC50 was greater than 10 µM.

In turn, `COc1ccc(C(=O)/C=C/c2ccccc2C(F)(F)F)cc1` registered an IC50 of 0.016 µM.

Take `O=C(/C=C/c1ccccc1C(F)(F)F)Nc1cccc(F)c1`: half-maximal inhibition (IC50) required 3.37 µM.

As to `O=C(/C=C/c1ccccc1C(F)(F)F)Nc1ccc(O)cc1`, the IC50 was greater than 10 µM.

Take `COc1ccc(OC(=O)/C=C/c2ccccc2Cl)cc1`: half-maximal inhibition (IC50) required 0.937 µM.

As for `O=C(/C=C/c1ccccc1C(F)(F)F)Nc1cccc(O)c1`, half-maximal inhibition (IC50) required 5.98 µM.

`O=C(/C=C/c1cccc(C(F)(F)F)c1)Nc1cccc(F)c1` had an IC50 of 4.89 µM.

On to `O=C(/C=C/c1ccccc1C(F)(F)F)c1ccc(O)cc1`, for which the IC50 amounted to 0.057 µM. This IC50 lies about 86-fold lower than the previous one.

With `O=C(/C=C/c1ccccc1Cl)Nc1ccccc1`, the IC50 is 2.82 µM.

Consider `COc1ccc(OC(=O)/C=C/c2ccccc2C(F)(F)F)cc1`, for which the IC50 was determined as 2.59 µM.

As to `COc1ccc(C(=O)/C=C/c2ccccc2)cc1` [4'-METHOXYCHALCONE], the IC50 worked out at 0.471 µM.

Consider `COc1ccccc1C(=O)/C=C/c1ccccc1`, for which the IC50 was greater than 10 µM.

For the compound `COc1ccc(/C=C/C(=O)c2ccc(OC)cc2)cc1` [4,4'-DIMETHOXYCHALCONE], the IC50 was greater than 10 µM.

On to `COc1cccc(C(=O)/C=C/c2ccccc2C(F)(F)F)c1`, for which 2.12 µM corresponded to half-maximal inhibition (IC50).

Turning to `O=C(/C=C/c1ccc(C(F)(F)F)cc1)Nc1ccc(F)cc1`, the midpoint of inhibition, the IC50, lay at 0.223 µM.

In the case of `O=C(/C=C/c1ccc(C(F)(F)F)cc1)Nc1cccc(F)c1`, the IC50 was 0.283 µM.

In turn, `COc1cccc(C(=O)/C=C/c2ccccc2)c1` came in with an IC50 of 0.793 µM.

Regarding `COc1ccccc1/C=C/C(=O)c1ccc(O)cc1`, the IC50 stood at 0.624 µM.

For `COc1ccc(C(=O)/C=C/c2ccccc2OC)cc1`, it took 0.419 µM to reach half-maximal inhibition (IC50). This IC50 and that of the compound before are within 1.5-fold of each other.

`COc1ccc(C(=O)/C=C/c2ccccc2Cl)cc1` came in with a half-inhibitory concentration (IC50) of 0.069 µM.

Compound `COc1ccc(C(=O)/C=C/c2cccc(OC)c2)cc1` displayed an IC50 of 1.4 µM.

The compound `O=C(/C=C/c1ccc(C(F)(F)F)cc1)Nc1ccccc1F` yielded an IC50 of 0.58 µM.

Turning to `O=C(/C=C/c1ccccc1C(F)(F)F)Oc1ccccc1`, the IC50 turned out to be 5.88 µM.

`COc1ccc(C(=O)/C=C/c2ccc(C(F)(F)F)cc2)cc1` had an IC50 of 0.199 µM. This IC50 lies about 30-fold lower than the previous one.

With `COc1ccc(C(=O)/C=C/c2ccccc2F)cc1`, the IC50 is 0.056 µM. This IC50 is about 3.6-fold lower than that of the compound before.

As to `O=C(/C=C/c1ccccc1Cl)Nc1cccc(O)c1`, 5.21 µM corresponded to half-maximal inhibition (IC50).

As for `O=C(/C=C/c1ccccc1C(F)(F)F)Nc1ccccc1`, the IC50 was 8.39 µM.

`O=C(/C=C/c1ccccc1Cl)Nc1ccc(O)cc1` showed an IC50 greater than 10 µM.

With `COc1ccc(C(=O)/C=C/c2cccc(C(F)(F)F)c2)cc1`, the IC50 came out at 0.145 µM.

For another data set, the target named is T2, Amine oxidase [flavin-containing] A (Homo sapiens, UniProt P21397).
T2 sequence (P21397 whole entry): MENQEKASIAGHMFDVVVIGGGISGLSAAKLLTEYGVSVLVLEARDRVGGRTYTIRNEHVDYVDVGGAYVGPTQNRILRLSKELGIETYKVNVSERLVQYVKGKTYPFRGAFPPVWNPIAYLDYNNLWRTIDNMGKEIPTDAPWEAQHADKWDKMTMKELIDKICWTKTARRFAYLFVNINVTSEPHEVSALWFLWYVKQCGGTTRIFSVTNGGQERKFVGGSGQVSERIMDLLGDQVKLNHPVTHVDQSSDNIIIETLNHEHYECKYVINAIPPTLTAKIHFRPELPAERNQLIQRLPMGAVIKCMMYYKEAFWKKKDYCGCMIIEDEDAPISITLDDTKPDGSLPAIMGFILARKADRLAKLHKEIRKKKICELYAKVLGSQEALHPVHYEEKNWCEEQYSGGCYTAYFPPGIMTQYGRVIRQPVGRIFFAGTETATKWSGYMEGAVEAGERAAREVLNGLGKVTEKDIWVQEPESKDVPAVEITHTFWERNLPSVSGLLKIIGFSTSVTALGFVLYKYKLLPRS
Conditions: not given
Consider `COc1ccccc1C(=O)/C=C/c1ccccc1C(F)(F)F`, for which the IC50 is greater than 100 µM.

`COc1ccc(NC(=O)/C=C/c2ccccc2C(F)(F)F)cc1` registered an IC50 greater than 100 µM.

Take `COc1ccc(NC(=O)/C=C/c2ccccc2Cl)cc1`: the IC50 was greater than 100 µM.

For the compound `COc1ccc(C(=O)/C=C/c2ccccc2C(F)(F)F)cc1`, the IC50 is greater than 100 µM.

As to `O=C(/C=C/c1ccccc1C(F)(F)F)Nc1cccc(F)c1`, the IC50 was greater than 100 µM.

Consider `O=C(/C=C/c1ccccc1C(F)(F)F)Nc1ccc(O)cc1`, for which half-maximal inhibition (IC50) was put at 9.22 µM. In other words, the single-digit micromolar range.

In turn, `COc1ccc(OC(=O)/C=C/c2ccccc2Cl)cc1` had an IC50 greater than 100 µM.

In the case of `O=C(/C=C/c1ccccc1C(F)(F)F)Nc1cccc(O)c1`, the IC50 was greater than 100 µM.

On to `O=C(/C=C/c1cccc(C(F)(F)F)c1)Nc1cccc(F)c1`, for which the IC50 is greater than 100 µM.

In the case of `O=C(/C=C/c1ccccc1C(F)(F)F)c1ccc(O)cc1`, the IC50 was greater than 100 µM.

The compound `O=C(/C=C/c1ccccc1Cl)Nc1ccccc1` had an IC50 greater than 100 µM.

Consider `COc1ccc(OC(=O)/C=C/c2ccccc2C(F)(F)F)cc1`, for which the IC50 was greater than 100 µM.

The compound `COc1ccc(C(=O)/C=C/c2ccccc2)cc1` [4'-METHOXYCHALCONE] came in with an IC50 greater than 100 µM.

In the case of `COc1ccccc1C(=O)/C=C/c1ccccc1`, the IC50 is greater than 100 µM.

Take `COc1ccc(/C=C/C(=O)c2ccc(OC)cc2)cc1` [4,4'-DIMETHOXYCHALCONE]: the IC50 is greater than 100 µM.

Compound `COc1cccc(C(=O)/C=C/c2ccccc2C(F)(F)F)c1` had an IC50 greater than 100 µM.

In turn, `O=C(/C=C/c1ccc(C(F)(F)F)cc1)Nc1ccc(F)cc1` had an IC50 greater than 100 µM.

As for `O=C(/C=C/c1ccc(C(F)(F)F)cc1)Nc1cccc(F)c1`, the IC50 was greater than 100 µM.

On to `COc1cccc(C(=O)/C=C/c2ccccc2)c1`, for which the IC50 was greater than 100 µM.

`COc1ccccc1/C=C/C(=O)c1ccc(O)cc1` yielded an IC50 greater than 100 µM.

In turn, `COc1ccc(C(=O)/C=C/c2ccccc2OC)cc1` came in with an IC50 greater than 100 µM.

Compound `COc1ccc(C(=O)/C=C/c2ccccc2Cl)cc1` gave an IC50 greater than 100 µM.

`COc1ccc(C(=O)/C=C/c2cccc(OC)c2)cc1` showed an IC50 greater than 100 µM.

`O=C(/C=C/c1ccc(C(F)(F)F)cc1)Nc1ccccc1F`: the IC50 was greater than 100 µM.

In turn, `O=C(/C=C/c1ccccc1C(F)(F)F)Oc1ccccc1` yielded an IC50 greater than 100 µM.

The compound `COc1ccc(C(=O)/C=C/c2ccc(C(F)(F)F)cc2)cc1` had an IC50 greater than 100 µM.

For the compound `COc1ccc(C(=O)/C=C/c2ccccc2F)cc1`, the IC50 was greater than 100 µM.

Consider `O=C(/C=C/c1ccccc1Cl)Nc1cccc(O)c1`, for which the IC50 is greater than 100 µM.

`O=C(/C=C/c1ccccc1C(F)(F)F)Nc1ccccc1` yielded an IC50 greater than 100 µM.

`O=C(/C=C/c1ccccc1Cl)Nc1ccc(O)cc1`: the IC50 was found to be 16.7 µM.

`COc1ccc(C(=O)/C=C/c2cccc(C(F)(F)F)c2)cc1` had an IC50 greater than 100 µM.

The target of the next data set is T1, Amine oxidase [flavin-containing] B. The experiment in a line: Reversible inhibition of recombinant human MAOB using benzylamine as substrate at 2 uM measured after 3 times washout of drug by Amplex red based spectrophotometric analysis.
Conditions: not given
Consider `COc1ccc(C(=O)/C=C/c2ccccc2C(F)(F)F)cc1`, for which the “inhibition (INH)” value was “Active”.

Regarding `C[C@H](NCc1ccc(OCc2cccc(F)c2)cc1)C(N)=O` [SAFINAMIDE], the “inhibition (INH)” value is given as “Not Active”.

Take `COc1ccc(C(=O)/C=C/c2ccccc2F)cc1`: the “inhibition (INH)” value was “Active”.

Test system in the next data set: not listed separately
Briefly: Effect on H2O2 scavenging activity of the compound up to 50 uM after 1.5 hrs by Amplex red/horseradish peroxidase detection method. In kind it is physicochemical.
Conditions: not given
Regarding `COc1ccc(C(=O)/C=C/c2ccccc2C(F)(F)F)cc1`, the Activity entry is “Not Active”.

For the compound `COc1ccc(C(=O)/C=C/c2ccccc2F)cc1`, the Activity entry was “Not Active”.

Test system in a further data set: not listed separately
The experiment in a line: Effect on H2O2 scavenging activity of the compound after 1.5 hrs by Amplex red/horseradish peroxidase detection method. Format: physicochemical.
Conditions: not given
As for `O=C(O[C@@H]1Cc2c(O)cc(O)cc2O[C@@H]1c1cc(O)c(O)c(O)c1)c1cc(O)c(O)c(O)c1` [EPIGALOCATECHIN GALLATE], the Activity result is reported as “Dose-dependent effect”.

Another data set deals with T1, Amine oxidase [flavin-containing] B. The conditions noted are these: 0.5 h, read-out: INH.
In the case of `COc1ccc(C(=O)/C=C/c2ccccc2C(F)(F)F)cc1`, the inhibition at 2 µM is greater than 80%.

As for `COc1ccc(C(=O)/C=C/c2ccccc2F)cc1`, the inhibition at 2 µM was greater than 80%.
